Assay results reported in US20250002527A1, “STEROID COMPOUND AND CONJUGATE THEREOF” (DUALITY BIOLOGICS (SUZHOU) CO., LTD., priority 2021, published 2025).

Biological target: T1, ERα (Homo sapiens, UniProt P03372)
T1 sequence (P03372 311-547 limits assumed): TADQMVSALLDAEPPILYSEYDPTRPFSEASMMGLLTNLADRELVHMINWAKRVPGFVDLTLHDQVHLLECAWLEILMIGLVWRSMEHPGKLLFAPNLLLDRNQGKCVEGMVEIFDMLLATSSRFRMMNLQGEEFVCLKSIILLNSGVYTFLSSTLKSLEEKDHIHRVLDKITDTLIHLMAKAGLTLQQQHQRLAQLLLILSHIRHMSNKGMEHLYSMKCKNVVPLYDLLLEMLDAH
Assay: ERα luciferase reporter gene experiment
Type: cell-based
Conditions: HEK293 transfected with pBIND-ERα
Description: HEK293 cells were cultured in DMEM+10% FBS medium in a carbon dioxide incubator humidified at 37° C. at 5% carbon dioxide.
• 1) HEK293 cells were trypsinized, and the HEK293 cell resuspension was adjusted to 200,000 cell/mL in medium (96 well plate: 100 μL/well). • 2) Transfection reagent mixtures were prepared according to the table below, mixed well and left at room temperature for 20 minutes.
• 3) The prepared transfection mixtures were added to 10 mL of the cell density-adjusted resuspension, mixed well by turning the mixtures upside down, and seeded into a 96-well plate at a volume of 100 μL/well. • 4) The 96-well plate was incubated in a humidified incubator at 37° C. and 5% carbon dioxide for 24 hours.
The test plate was detected using the Dual-Glo Luciferase Assay System kit from Promega, and the fluorescence signal of Firefly Luciferase and the fluorescence signal of Renilla Luciferase were read using Enspire, respectively.
Y is the agonism and X is the concentration of the compound.

SMILES: C[C@]12C=CC(=O)C=C1CC[C@@H]1[C@@H]2[C@@H](O)C[C@@]2(C)[C@H]1C[C@H]1O[C@@H](c3ccc(Cc4ccc(CO)cc4)cc3)O[C@]12C(=O)CO [Compound 4]
- EC50: > 1 µM
